Experimental data as given in patent US20020137733A1, “Macrocyclic anti-viral compounds” (priority 2000, published 2002).
In brackets after ≈: the same amount, converted by molar mass. Read-outs that look alike come from different tables or passages of the source.

Assays:
[1] = tested on: HSV-1 KOS; assay: Anti-HSV CPE assay, HSV-1 KOS; type: cell-based, herpes simplex virus type 1
Description: (§1) Human embryonic lung fibroblast (HEL) cells and Vero cells were propagated in minimal essential medium (MEM) supplemented with 10% fetal calf serum, L-glutamine, and bicarbonate. A CPE assay was used, confluent cultures of HEL or Vero cells grown in 96-well microtiter plates were inoculated with 100 times the 50% cell culture infective dose of the different HSV strains (HSV-1 KOS; HSV-1 Tk−, which is deficient for thymidine kinase; and HSV-2 G). Compounds were added after a 2 hours virus adsorption period. After 2 to 3 days incubation at 37 C. in 5% CO2 atmosphere, cells were fixed with ethanol and stained with 2.5% Giemsa solution. Virus-induced cytopathic effect (CPE) was then recorded microscopically. […] IC50 values were estimated from graphic plots of the number of plaques (percentage of control) or percentage of cytopathocity as a function of the concentration of the test compounds. Control compounds ganciclovir (GCV) and cidofovir ([(S)-1-(3-hydroxy-2-phosphonylmethoxypropyl)cytosine], HPMPC) were run in parallel.

[2] = tested on: VZV YS strain; assay: Anti-VZV plaque assay, YS strain (Tk+); type: cell-based, varicella zoster virus; details: read-out: ANTI-VZV ACTIVITY EC50 Plaque assay VZV Tk+ YS strain
Description: (§2) Human embryonic lung fibroblast (HEL) cells were grown in 96-well plates at the confluent stage and then were infected with reference strains VZV expressing viral thymidine kinase (YS and Oka) or lacking the viral thymidine kinase (07-1 and YS-R) at 20 plaque-forming units (PFU) for plaque assay. After a 2 hours incubation, residual virus was removed and the infected cells were further incubated with Eagle's MEM culture medium supplemented with 2% inactivated FCS (fetal calf serum), 1% L-glutamine and 0.3% sodium bicarbonate containing dilution of the test compounds (in duplicate) After 5 days incubation at 37 C. in 5% CO2 atmosphere, cells were fixed with ethanol and stained with 2.5% Giemsa solution. Virus plaque formation was monitored microscopically. […] IC50 values were estimated from graphic plots of the number of plaques (percentage of control) as a function of the concentration of the test compounds.

[3] = tested on: HSV-2 G; assay: Anti-HSV CPE assay, HSV-2 G; type: cell-based, herpes simplex virus type 2
Description: as §1

[4] = tested on: Vero cells; assay: Cytotoxicity, alteration of cell morphology (MTC), Vero cells; type: cell-based; details: Table 1
Excerpt: (§3) Method 10. Cytotoxicity Measurements Based on Alteration of Cell Morphology
(§4) Minimum toxic concentration which is expressed as MTC, is the minimum concentration of compound required to cause microscopically detectable alteration in normal cell morphology.
(§5) MTC: Minimal toxic concentration or minimal concentration required to alter normal cell morphology (Visual examination)

[5] = tested on: HSV-1 Tk−; assay: Anti-HSV CPE assay, HSV-1 Tk- (thymidine kinase deficient); type: cell-based, herpes simplex virus type 1
Description: as §1

[6] = tested on: HEL cells; assay: Cytotoxicity, alteration of cell morphology (MTC), HEL cells; details: for CYTOTOXICITY MTC HEL: Table 1 (anti-HSV study)
Excerpt: as §3, §4, §5

[7] = tested on: VZV OKA strain; assay: microbe, parasite or virus in culture; type: cell-based, varicella zoster virus; details: Human alphaherpesvirus 3, HEL, read-out: ANTI-VZV ACTIVITY EC50 Plaque assay VZV Tk+ OKA strain
Description: as §2

[8] = tested on: VZV 07/1 strain; assay: microbe, parasite or virus in culture; type: cell-based, varicella zoster virus; details: Human alphaherpesvirus 3, HEL, read-out: ANTI-VZV ACTIVITY EC50 Plaque assay VZV Tk− 07/1 strain
Description: as §2

[9] = tested on: VZV YS/R strain; assay: microbe, parasite or virus in culture; type: cell-based, varicella zoster virus; details: Human alphaherpesvirus 3, HEL, read-out: ANTI-VZV ACTIVITY EC50 Plaque assay VZV Tk− YS/R strain
Description: as §2

[10] = tested on: HCMV Davis; assay: Anti-HCMV plaque assay; type: cell-based, cytomegalovirus; details: for EC50: Human betaherpesvirus 5, HEL
Description: (§6) Method 4. Anti-HCMV Assay
(§7) Human embryonic lung fibroblast cells (HEL) were grown in 96-well plates at the confluent stage and then were infected with reference strains of HCMV Davis at 8, 20, 38 plaque-forming units (PFU)/well for plaque assay or at 100 PFU/well for cytopathic effect (CPE) assay. After a 2 hours incubation, residual virus was removed and the infected cells were further incubated with Eagle's MEM culture medium supplemented with 2% inactivated FCS (fetal calf serum), 1% L-glutamine and 0.3% sodium bicarbonate containing dilution of the test compounds (in duplicate). After 7 days incubation at 37 C. in 5% CO2 atmosphere, cells were fixed with ethanol and stained with 2.5% Giemsa solution. Virus plaque formation or viral cytopathic effect were monitored microscopically. […] IC50 values were estimated from graphic plots of the number of plaques (percentage of control) or percentage of cytopathocity as a function of the concentration of the test compounds. Control compounds ganciclovir (GCV) and cidofovir ([(S)-1-(3-hydroxy-2-phosphonylmethoxypropyl)cytosine], HPMPC) were run in parallel.

[11] = Cytotoxicity, inhibition of cell growth (CC50), P3HR cells; type: cell-based; details: human, Coulter counter
Description: (§8) Method 9. Cytotoxicity Measurements Based on the Inhibition of Cell Growth
(§9) Cells were seeded at a rate of 5×10^3 cells/well in 96-well plates and allowed to proliferate 24 hours. Different concentrations of the test compounds were then added (in duplicates), and after 3 days of incubation at 37 C. in 5% CO2 atmosphere, the cell number was determined with a coulter counter.

[12] = in vitro; type: cell-based; details: human
Excerpt: Method 11. Cytotoxicity Measurements Based on Reduction of Total Cellular DNA Content Expressed as CC50*

[13] = tested on: EBV; assay: Anti-EBV assay, EBV-specific DNA/DNA hybridization in P3HR-1 cells; type: cell-based, Epstein-Barr virus; details: read-out: ANTI-EBV ACTIVITY EC50 DNA hybridiation assay
Description: To determine the effects of the compounds on EBV replication, exponentially growing P3HR-1 cells were treated for 14 days with various concentrations of the compounds. The cells were then harvested, and the genome copy numbers were determined using EBV-specific DNA/DNA hybridization technique. […] Control compound cidofovir ([(S)-1-(3-hydroxy-2-phosphonylmethoxypropyl)cytosine], HPMPC) was run in parallel.

[14] = Cytotoxicity, inhibition of cell growth (CC50), HEL cells; type: cell-based; details: human, Coulter counter
Description: as §8, §9

[15] = tested on: HCMV Davis; assay: Anti-HCMV CPE assay; type: cell-based, cytomegalovirus; details: HEL cells, 100 PFU/well; for EC50: Human betaherpesvirus 5, HEL, read-out: ANTI-HCMV ACTIVITY EC50 HCMV-Davis CPE 100/well (96 well)
Description: as §6, §7

[16] = Human alphaherpesvirus 1, Vero cells, read-out: ANTI-HSV ACTIVITY EC50 CPE assay HSV-1-KOS Vero
[17] = Human alphaherpesvirus 2, Vero, Vero cells, read-out: ANTI-HSV ACTIVITY EC50 CPE assay HSV-2-G Vero
[18] = Human alphaherpesvirus 1, Vero, read-out: ANTI-HSV ACTIVITY EC50 CPE assay HSV-1Tk- Vero, Vero cells
[19] = Human alphaherpesvirus 1, HEL, read-out: ANTI-HSV ACTIVITY EC50 CPE assay HSV-1Tk- HEL, HEL cells
[20] = HEL cells, 8 PFU/well, read-out: ANTI-HCMV ACTIVITY EC50 HCMV-Davis Plaque assay 8/well
[21] = HEL cells, 38 PFU/well, read-out: ANTI-HCMV ACTIVITY EC50 HCMV-Davis Plaque assay 38/well
[22] = Human alphaherpesvirus 1, HEL cells, read-out: ANTI-HSV ACTIVITY EC50 CPE assay HSV-1-KOS HEL

Compound	EC50 [1, 16]	EC50 [3, 17]	CYTOTOXICITY MTC Vero [4]	EC50 [5, 18]	EC50 ([2]; Human alphaherpesvirus 3, HEL)	CYTOTOXICITY HEL cells MTC ([6]; Table 3 (anti-VZV study))	EC50 [7]	EC50 [8]	EC50 [9]	CC50 at 3 days [11]	CC50 [12]	CYTOTOXICITY MTC HEL [6]	EC50 [5, 19]	CC50 at 3 days [14]	EC50 [10, 20]	EC50 [10, 21]	EC50 [1, 22]	EC50 [15]	CYTOTOXICITY HEL cells MTC ([6]; Table 4 (anti-HCMV study))	also measured
Nc1nc2c(ncn2COCCO)c(=O)[nH]1 [ACV, acyclovir]	2.4 µg/mL (≈ 10.7 µM)	1.3 µg/mL (≈ 5.77 µM)	>10 µg/mL	33 µg/mL (≈ 147 µM)																EC50 ([2]; Human alphaherpesvirus 3, HEL cells, 20 PFU): 0.69 µg/mL (≈ 3.06 µM)
O=c1[nH]c(=O)n([C@H]2C[C@H](O)[C@@H](CO)O2)cc1/C=C/Br [BVDU, (E)-5-(2-bromovinyl)-2′-deoxyuridine]					0.0013 µg/mL (≈ 0.0039 µM)	>50 µg/mL	0.0013 µg/mL (≈ 0.0039 µM)	4 µg/mL (≈ 12 µM)	39 µg/mL (≈ 117 µM)											
O=C1NCc2ccccc2OCC/C=C/c2cncc3ccc1nc23 [Compound #1]			25 µg/mL	1.1 µg/mL (≈ 3.32 µM)	0.05 µg/mL (≈ 0.151 µM)	>2 µg/mL	0.06 µg/mL (≈ 0.181 µM)	0.06 µg/mL (≈ 0.181 µM)	0.05 µg/mL (≈ 0.151 µM)	0.7 µg/mL (≈ 2.11 µM)	2.6 µg/mL (≈ 7.85 µM)	6 µg/mL	0.062 µg/mL (≈ 0.187 µM)	0.1 µg/mL (≈ 0.302 µM)						EC50 ([10]; read-out: ANTI-HCMV ACTIVITY EC50 HCMV-Davis Plaque assay 8/well): < 0.0015 µg/mL; EC50 ([10]; read-out: ANTI-HCMV ACTIVITY EC50 HCMV-Davis Plaque assay 20/well): < 0.0015 µg/mL; EC50 ([10]; read-out: ANTI-HCMV ACTIVITY EC50 HCMV-Davis Plaque assay 38/well): 0.003 µg/mL (≈ 0.00905 µM); EC50 ([1]; Human alphaherpesvirus 1, HEL, read-out: ANTI-HSV ACTIVITY EC50 CPE assay HSV-1-KOS HEL): 0.098 µg/mL (≈ 0.296 µM); EC50 ([1]; Human alphaherpesvirus 1, Vero, read-out: ANTI-HSV ACTIVITY EC50 CPE assay HSV-1-KOS Vero): 0.52 µg/mL (≈ 1.57 µM); EC50 ([13]; human gammaherpesvirus 4, P3HR-1, 336 h): < 0.2 µg/mL; EC50 ([3]; Human alphaherpesvirus 2, HEL, read-out: ANTI-HSV ACTIVITY EC50 CPE assay HSV-2-G HEL): 0.138 µg/mL (≈ 0.416 µM); EC50 ([3]; Human alphaherpesvirus 2, Vero, read-out: ANTI-HSV ACTIVITY EC50 CPE assay HSV-2-G Vero): 0.009 µg/mL (≈ 0.0272 µM)
Nc1nc(O)c2ncn(COC(CO)CO)c2n1 [GCV, 9-[(1,3-dihyroxy-2-propoxy)methyl]guanine]	2.6 µg/mL (≈ 10.2 µM)	1.2 µg/mL (≈ 4.7 µM)	>100 µg/mL	> 100 µg/mL								>100 µg/mL	12.5 µg/mL (≈ 49 µM)	23 µg/mL (≈ 90.1 µM)	0.94 µg/mL (≈ 3.68 µM)	> 100 µg/mL	0.01 µg/mL (≈ 0.0392 µM)	0.98 µg/mL (≈ 3.84 µM)	>100 ug/m/	ANTI-HCMV ACTIVITY EC50 HCMV-Davis Plaque assay 8/well ([10]; HEL cells, 8 PFU/well): 0.86 µg/mL; ANTI-HCMV ACTIVITY EC50 HCMV-Davis CPE 100/well (96 well) [15]: 0.78 µg/mL; ANTI-HSV ACTIVITY EC50 CPE assay HSV-1Tk- HEL ([5]; HEL cells): 17.4 µg/mL
Nc1ccn(C[C@@H](CO)OCP(=O)(O)O)c(=O)n1 [HPMPC, (S)-1-(3-hydroxy-2-phosphonylmethoxypropyl)cytosine]	6.7 µg/mL (≈ 24 µM)	1.3 µg/mL (≈ 4.66 µM)	>100 µg/mL	2.4 µg/mL (≈ 8.6 µM)						30 µg/mL (≈ 107 µM)	> 25 µg/mL	>100 µg/mL	0.012 µg/mL (≈ 0.043 µM)	11 µg/mL (≈ 39.4 µM)	0.15 µg/mL (≈ 0.537 µM)	1.9 µg/mL (≈ 6.81 µM)	0.098 µg/mL (≈ 0.351 µM)	0.1 µg/mL (≈ 0.358 µM)	>100 ug/m/	EC50 ([10]; HEL cells, 20 PFU/well, read-out: ANTI-HCMV ACTIVITY EC50 HCMV-Davis Plaque assay 20/well): 0.14 µg/mL (≈ 0.501 µM); EC50 ([13]; human gammaherpesvirus 4, 336 h, P3HR-1 cells, treated 14 days): < 25 µg/mL; EC50 ([3]; Human alphaherpesvirus 2, HEL, HEL cells, read-out: ANTI-HSV ACTIVITY EC50 CPE assay HSV-2-G HEL): 0.01 µg/mL (≈ 0.0358 µM)
